Test results: patent publication US8242086B2, “Methods and compositions for treating disorders caused by a deficiency in a gene product of a CLN gene” (Duke University, priority 2008, dated 2012)

What was measured:
mutant CLN3p = experiment: Protein-lipid overlay assay, mutant CLN3p (JNCL cell lysate); assay type: binding, human; conditions: lysate of JNCL cells, anti-CLN3 antibody
Method: (§1) Protein-lipid overlay assay. Membrane arrays (SPHINGOSTRIPS (Echelon Research Laboratories, Salt Lake City, Utah), or lipids were spotted on nitrocellulose membranes and dried for at least one hour. Membranes were blocked with 3% (wt/vol) Fatty Acid Free or FFA-BSA (Sigma-Aldrich, St. Louis, Mo.) in Tris-Buffered Saline Tween-20 (TBST) [150 mM NaCl/10 mM Tris.HCl (pH 8.0), and 0.1% (vol/vol) Tween-20] for 1 h at RT. Blocked membranes were incubated for 8 h at 4° C. with 2 mg/ml of total cell lysate.
(§2) Fibroblasts overexpressing CLN3p (AC1 cells) and JNCL fibroblasts were used for the GalCer-CLN3 binding assay. The membranes were then washed five times for 5 min each with TBST. After washing, membranes were incubated with anti-CLN3, CLN1, CLN2, CLN6 or CLN8-antibodies overnight at 1:1000 dilution, followed by additional washing and incubation with horseradish peroxidase-conjugated anti-rabbit IgG goat antibody for 1 h at RT. After a final washing, enhanced chemiluminescence was used to detect binding of NCL proteins to sphingolipids. Intensity values were computed with an ImageJ software program.
Binding of CLN3 to GalCer and sulfatide. Membranes impregnated with sphingolipids were overlaid with protein cell lysates from CLN3-overexpressing and JNCL cells. Anti-CLN3 antibody was used to evaluate binding. […]

CLN6 protein = biological target: T1, CLN6 protein (Homo sapiens, UniProt Q9NWW5); experiment: Protein-lipid overlay assay, CLN6 protein; assay type: binding; conditions: lysates from normal cells, custom made sphingostrips
T1 construct: endogenous in cells
T1 sequence (Q9NWW5 1-311): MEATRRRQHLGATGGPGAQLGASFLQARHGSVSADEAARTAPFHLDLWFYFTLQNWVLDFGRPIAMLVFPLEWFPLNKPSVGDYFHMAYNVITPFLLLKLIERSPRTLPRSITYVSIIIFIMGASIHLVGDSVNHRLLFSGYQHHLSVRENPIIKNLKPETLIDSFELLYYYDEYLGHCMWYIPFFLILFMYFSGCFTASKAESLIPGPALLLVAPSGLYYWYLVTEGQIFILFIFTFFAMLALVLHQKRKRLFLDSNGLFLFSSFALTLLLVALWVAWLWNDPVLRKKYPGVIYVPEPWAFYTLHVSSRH
Method: as §1, §2
CLN1, CLN2, CLN6, CLN8 and CLN9 proteins also bind to lipids. The protein-lipid overlay assay, using custom made sphingostrips, lysates from normal cells and anti-CLN1, anti-CLN2-, anti-CLN6, and anti-CLN8-antibodies, established that CLN6 and CLN8 proteins bind to GalCer, CLN1, CLN2 and CLN6p bind lysophosphatidic acid (LPA) and sulfatide, and CLN8p binds ceramide (FIG. 5).

[1] = system: galactosylceramide transferase (GCT); conditions: exogenous supplementation of GalCer; Rusyn E et al., 2008; cited from earlier work
[2] = system: CLN3-deficient human NT2 neuronal precursor cells; experiment: Lipid raft GalCer in CLN3-deficient NT2 cells after GalCer supplementation; assay type: cell-based; conditions: exogenous GalCer supplementation
CLN8 protein = experiment: Protein-lipid overlay assay, CLN8 protein; assay type: binding; conditions: lysates from normal cells, custom made sphingostrips
Method: as §1, §2
CLN1, CLN2, CLN6, CLN8 and CLN9 proteins also bind to lipids. […]

wild-type CLN3p = biological target: T2, wild-type CLN3p (Homo sapiens, UniProt Q13286); experiment: Protein-lipid overlay assay, wild-type CLN3p; assay type: binding
T2 construct: expressed in transfected cells; host or cells: fibroblasts overexpressing CLN3p (AC1 cells)
T2 sequence (Q13286 1-438): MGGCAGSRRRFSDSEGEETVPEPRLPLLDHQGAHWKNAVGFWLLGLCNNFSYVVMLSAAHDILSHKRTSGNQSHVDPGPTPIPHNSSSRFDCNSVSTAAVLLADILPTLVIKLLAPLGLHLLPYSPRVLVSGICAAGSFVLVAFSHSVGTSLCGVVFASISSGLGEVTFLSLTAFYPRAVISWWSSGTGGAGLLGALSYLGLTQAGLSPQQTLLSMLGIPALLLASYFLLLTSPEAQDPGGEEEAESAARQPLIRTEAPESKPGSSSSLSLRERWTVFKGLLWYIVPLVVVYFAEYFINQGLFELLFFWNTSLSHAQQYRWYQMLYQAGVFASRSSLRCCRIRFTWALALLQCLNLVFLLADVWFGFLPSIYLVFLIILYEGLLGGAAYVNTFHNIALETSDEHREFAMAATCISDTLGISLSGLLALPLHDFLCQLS
Method: as §1, §2
Binding of CLN3 to GalCer and sulfatide. Membranes impregnated with sphingolipids were overlaid with protein cell lysates from CLN3-overexpressing and JNCL cells. Anti-CLN3 antibody was used to evaluate binding. […] The signal for GalCer-wild-type CLN3p binding was weaker because the more polar sulfatide competes with the less polar GalCer for binding to wild-type CLN3p.

Substance: galactosylceramide [GalCer]
- binding of mutant CLN3 to membrane spots impregnated with the lipid (mutant CLN3p): failed to do so
- binding of CLN6 protein to lipid (CLN6 protein): bind
- growth defect and increased apoptosis of GalCer synthase knockdown lymphoblasts [1]: remedied
- GalCer in lipid rafts of CLN3-deficient NT2 cells [2]: normalizes GalCer in lipid rafts
- binding of CLN8 protein to lipid (CLN8 protein): bind
- binding of wild-type CLN3p to membrane spots impregnated with the lipid (wild-type CLN3p; lysate of CLN3-overexpressing cells, anti-CLN3 antibody): bind strongly
- binding of CLN3p to GalCer when sulfatide was omitted from the membrane (wild-type CLN3p; sulfatide omitted, dose dependent): stronger binding
